Results taken from patent EP3391747A1, “USE OF PHENOXYPYRIDINYL-SUBSTITUTED (1H-1,2,4-TRIAZOL-1-YL)ALCOHOLS FOR ENHANCING CROP PERFORMANCE” (Bayer AG, priority 2018, dated 2018).

What was measured:
Septoria tritici = Septoria tritici test / in vitro microtest (liquid medium, microtitre plates, optical density at 620 nm); format: cell-based; details: for EC50 (Mean): mean over the 14 strains; for EC50: 5 days of incubation
Procedure: In an in-vitro microtest, several compounds were tested against different strains of Septoria tritici.
The microtest was performed in liquid medium with 50% malt medium using microtitre plates.
The active compounds are applied as technical active substances dissolved in methanol and 8 concentrations were prepared. The resulting concentration range was 0; 0.0032; 0.016; 0.08; 0.4; 2; 10; and 50 µg a.i. /ml. A mycelium suspension of different strains of Septoria tritici was used for inoculation. After 5 days of incubation in darkness under shaking (10 Hrz) the optical density in each cavity was determined photometrically at 620 nm. […] Table 3: Septoria tritici test /in vitro

[1] = tested on: leaf discs of grape plants; test: Leaf disc test: chlorophyll content (greening effect) by SPAD-502 chlorophyll meter; details: 1 ppm; after 3 days at room temperature (21°C); 5 replicates
Procedure: According to this invention the chlorophyll content is measured by means of the commercially available hand-held chlorophyll meter SPAD-502 (Konica Minolta).
In a lab experiment, leaf discs of grape plants were put in petri dishes containing solutions of different compounds. 5 replicates were used for each treatment. Afterwards, the petri dishes were incubated for max. 7 days at room temperature (21°C). After 3 days, the chlorophyll content of the leaf discs was measured by using a commercially available hand-held chlorophyll meter (SPAD-502, Konica Minolta). Table 2: Impact of 2-[6-(4-bromophenoxy)-2-(trifluoromethyl)-3-pyridyl]-1-(1,2,4-triazol-1-yl)propan-2-ol (I.02) on the chlorophyll content (greening effect) in leaf discs

winter wheat = test: Field trial in winter wheat: impact on yield, greening and canopy coverage under pathogen-free conditions; format: in vivo, winter wheat variety "Dekan"; details: 125 g a.i./ha; for Grain Yield (% of Control) / Grain Yield: sprayed threefold at BBCH 31, 39 and 69 as 100EC formulation; for Grain Yield (% of Control): control = 100EC blank formulation; for Grain Yield: harvest July 2017; for Greening (% of Control): measured visually at BBCH growth stage 65, untreated control plots = 100%; for Canopy Coverage: tractor-mounted RGB camera system, BBCH growth stage 37
Procedure: A field trial in winter wheat was conducted in the experimental station "Laacherhof" in Germany from autumn 2016 to summer 2017.
Seeds of the winter wheat variety "Dekan" were planted in October 2016. Fertilization, herbicide- and plant growth regulator applications were carried out according to the local agricultural practice. Additionally, a cover spray with the fungicidal composition "Pronto® Plus" was carried out at BBCH growth stage 51 in order to keep the field trial pathogen-free. The trial was conducted with 4 replicates and the replicates 2, 3 and 4 were randomized. The plot size was 8.8 m^2.
The compounds 2-[6-(4-chlorophenoxy)-2-(trifluoromethyl)-3-pyridyl]-1-(1,2,4-triazol-1-yl)propan-2-ol (I.01) and 2-[6-(4-bromophenoxy)-2-(trifluoromethyl)-3-pyridyl]-1-(1,2,4-triazol-1-yl)propan-2-ol (1.02) were sprayed threefold at BBCH growth stages 31, 39 and 69 with an use rate of 125 g a.i./ha (a.i. = active ingredient, i.e. the respective compound of formula (I)). Both compounds were applied as a 100EC formulation (100EC = emulsion concentrate comprising 100 g/L of the respective active ingredient).
The winter wheat was harvested in July 2017.
The greening effect was measured visually at BBCH growth stage 65. The greening of the untreated control plots corresponds to 100% and the plots of the other treatments were directly compared to the control plots (table 1).
The canopy coverage was measured by a tractor-mounted RGB camera system on May 11, 2017 at BBCH growth stage 37 (table 1). Table 1: Impact of different compounds on yield, greening and canopy coverage

| SMILES | EC50 (Mean) (Septoria tritici) | EC50 (Septoria tritici; strain 01/16) | EC50 (Septoria tritici; strain 02/16) | EC50 (Septoria tritici; strain 03/16) | EC50 (Septoria tritici; strain 04/16) | EC50 (Septoria tritici; strain 05/16) | EC50 (Septoria tritici; strain 06/16) | EC50 (Septoria tritici; strain 07/16) | EC50 (Septoria tritici; strain 08/16) | EC50 (Septoria tritici; strain 09/16) | EC50 (Septoria tritici; strain 11/16) | EC50 (Septoria tritici; strain 12/16) | EC50 (Septoria tritici; strain 13/16) | EC50 (Septoria tritici; strain 14/16) | EC50 (Septoria tritici; strain 15/16) | SPAD Reading [1] | Grain Yield (% of Control) (winter wheat) | Grain Yield (winter wheat) | Greening (% of Control) (winter wheat) | Canopy Coverage (winter wheat) [%] |
| --- | --- | --- | --- | --- | --- | --- | --- | --- | --- | --- | --- | --- | --- | --- | --- | --- | --- | --- | --- | --- |
| CC(C)(C)C(O)(CCc1ccc(Cl)cc1)Cn1cncn1 (stereo not shown) [Tebuconazole, reference compound] | 7,4138 ppm | 8,1102 ppm | 14,4303 ppm | 13,2784 ppm | 50,0000 ppm | 8,5712 ppm | 10,6222 ppm | 5,4355 ppm | 4,2639 ppm | 27,1082 ppm | 0,6823 ppm | 2,1260 ppm | 28,6583 ppm | 3,4790 ppm | 2,3577 ppm | 25 |  |  |  |  |
| CC(O)(Cn1cncn1)c1ccc(Oc2ccc(Cl)cc2)nc1C(F)(F)F (stereo not shown) [Compound 1.01, 2-[6-(4-chlorophenoxy)-2-(trifluoromethyl)-3-pyridyl]-1-(1,2,4-triazol-1-yl)propan-2-ol] | 0,0203 ppm | 0,1348 ppm | 0,0248 ppm | 0,0032 ppm | 0,0355 ppm | 0,0503 ppm | 0,0039 ppm | 0,0032 ppm | 0,0641 ppm | 0,1002 ppm | 0,0034 ppm | 0,0715 ppm | 0,0055 ppm | 0,0147 ppm | 0,0663 ppm |  | 108 % of Control | 74,6 dt/ha | 108 % of Control | 58 |
| CC(O)(Cn1cncn1)c1ccc(Oc2ccc(Br)cc2)nc1C(F)(F)F (stereo not shown) [Compound 1.02, 2-[6-(4-bromophenoxy)-2-(trifluoromethyl)-3-pyridyl]-1-(1,2,4-triazol-1-yl)propan-2-ol] | 0,0133 ppm | 0,0187 ppm | 0,0108 ppm | 0,0043 ppm | 0,0433 ppm | 0,0223 ppm | 0,0033 ppm | 0,0032 ppm | 0,0629 ppm | 0,0416 ppm | 0,0038 ppm | 0,0806 ppm | 0,0169 ppm | 0,0080 ppm | 0,0059 ppm | 32 | 112 % of Control | 77,8 dt/ha | 137 % of Control | 58 |
